Data published in US20190358176A1, “METHODS OF SENSITIZING CANCER CELLS TO IMMUNE CELL KILLING” (University of Pittsburgh - of the Commonwealth System of …, priority 2017, published 2019).

Tests used:
rat hepatocytes = experiment: ROS generation in hepatocytes (DHE staining); type: cell-based
Method: Cells were cultured as above and labeled four hours following drug addition with 4 μM DHE for 2 hours. Hoechst 33342 was added to a 4 μg/ml final concentration during the final hour of incubation. In the presence of ROS, DHE is oxidized to a red fluorescent dye (oxyethidium). Cells were imaged as above and the percentage of oxyethidium-nuclear positive cells calculated based on a threshold set with vehicle treated cells.

zebrafish embryos [1] = experiment: ROS generation in zebrafish embryos (DHE); type: in vivo; conditions: developing zebrafish embryos, 48 hpf
Method: All procedures involving zebrafish were reviewed and approved by the University of Pittsburgh Institutional Animal Care and Use Committee. Wildtype AB* embryos were kept in E3 medium (5 mM NaCl, 0.17 mM KCl, 0.33 mM CaCl2, 0.33 mM MgSO4). At 48 hours post fertilization (hpf), embryos were arrayed into the wells of a 96 well microplate and treated with vehicle (0.5% DMSO) or test agents. After a 30-min pre-incubation, embryos were labeled with a solution of 10 μM DHE and 40 μg/mL MS222 (tricaine methanesulfonate, Sigma) in E3 to restrict movement during imaging. Six hours after DHE loading, embryos were imaged on an ArrayScan II using a 2.5× objective. Images were analyzed for oxyethidium fluorescence with the TargetActivation Bioapplication using the MEAN_ObjectAvgIntenCh1 parameter.

MDA-MB-231 cells [2] = experiment: Immune cell killing (sensitization to PBMC-derived LAK); type: cell-based, human
Method: Peripheral blood mononuclear cells were obtained from healthy volunteers with an established IRB approved protocol, separated from heparinized blood on Ficoll-hypaque (GE Healthcare, Chicago) gradients as previously reported (16). Cells were cultured in RPMI 1640 supplemented with 10% FCS, 1% glutamine, 1% penicillin/streptomycin, and stimulated with 6,000 IU of Interleukin 2 for 24 hours. After incubation, cells were washed with PBS and counted. In parallel, MBA-MB-231 cells were pre-treated in a 384 well plate with vehicle or BCI-215 (3 μM). After 24 hours in culture, medium was replaced and PBMC added in two-fold serial dilutions starting with a 50-fold excess of PBMCs in triplicate. After 24 hours of co-culture, cells were fixed with formaldehyde/Hoechst 33342, washed twice with PBS, and imaged on the ArrayScan II. Cancer cells were identified by their larger nuclei compared with PBMC, setting a size gate in the DAPI channel. In experiments with chemotherapeutics, cells carrying a biosensor consisting of a mitochondrial targeting sequence derived from cytochrome c oxidase VIII linked to GFP that is a surrogate for cytochrome c release from mitochondria (17) were pre-treated for 24 hours with cisplatin (2 μM) or doxorubicin (400 nM), exposed to LAK as above, and cancer cells identified and quantified by green fluorescence. Cell densities were normalized to those in the absence of PBMCs. Mean cell densities from multiple independent experiments were averaged and plotted in GraphPad Prism.

MDA-MB-231 cells [3] = experiment: Detection and quantitation of ROS in cancer cells (CM-H2-DCFDA); type: cell-based, human; conditions: 50 μM
Method: Detection and quantitation of ROS in cancer cells was performed as described before (14). Briefly, MDA-MB-231 cells were labeled with Hoechst 33342, loaded with CM-H2-DCFDA (5 μM, 15 min), and treated with test agents for 10 min. After two washes, cells were analyzed for Hoechst and ROS/FITC fluorescence on the ArrayScan II. Cells were classified as positive for ROS if their average FITC intensity exceeded a threshold defined as the average FITC intensity plus one SD from DMSO-treated wells.

zebrafish embryos [4] = conditions: prior SAR study (12); cited from earlier work
endothelial cell line = conditions: prior SAR study (12); cited from earlier work

## O=C1/C(=C/c2ccccc2)C(NC2CCCCC2)c2cc(Br)ccc21 (centres unmarked) [BCI-215]
Rat hepatocytes
  generation of ROS in hepatocytes (DHE): does not Generate Reactive Oxygen Species
Zebrafish embryos [1]
  generation of ROS in zebrafish embryos (DHE): does not Generate Reactive Oxygen Species
MDA-MB-231 cells [2]; BCI-215 3 μM pre-treatment versus vehicle
  difference in killing versus vehicle: well over three log differences in killing
MDA-MB-231 cells [2]; MDA-MB-231 pre-treated with BCI-215 3 μM for 24 hours
  LAK number at maximal sensitization: 1000 LAK/well
MDA-MB-231 cells [2]; pre-treated 24 hours: BCI-215 3 μM, cisplatin 2 μM, doxorubicin 400 nM
  sensitization to LAK activity: sensitization at lower effector ratios than cisplatin or doxorubicin
MDA-MB-231 cells [3]
  ROS generation at 50 μM: did not generate ROS
Zebrafish embryos [4]
  toxicity to zebrafish embryos: non-toxic
Endothelial cell line
  toxicity to an endothelial cell line: non-toxic
